Experimental data reported in publication PMC5218480 (PLoS ONE, 2017).

System: MV-4-11 cells
Experiment: Gene expression microarray analysis (Affymetrix PrimeView) and GSEA
Type: cell-based, human
Design: RFU PODN (11730768_x_at) / Fold change /veh PODN (11730768_x_at) / RFU LINC00158 (11744669_a_at) / Fold change /veh LINC00158 (11744669_a_at) / RFU DUSP10 (11751237_a_at) / Fold change /veh DUSP10 (11751237_a_at) / RFU ID3 (11757404_x_at) / Fold change /veh ID3 (11757404_x_at) / RFU PLEKHG5 (11737974_s_at) / Fold change /veh PLEKHG5 (11737974_s_at) / RFU LRRC4B (11730491_at) / Fold change /veh LRRC4B (11730491_at) / RFU GIMAP4 (11747438_a_at) / Fold change /veh GIMAP4 (11747438_a_at) / RFU KRT8 (11758183_x_at) / Fold change /veh KRT8 (11758183_x_at) / RFU CNN1 (11734310_a_at) / Fold change /veh CNN1 (11734310_a_at) / RFU VPS37D (11726825_at) / Fold change /veh VPS37D (11726825_at) / RFU C10orf10 (11716522_x_at) / Fold change /veh C10orf10 (11716522_x_at) / RFU KIR2DL2 /// KIR2DL4 /// KIR2DL5A /// KIR2DL5B /// KIR2DS1 /// KIR2DS2 /// KIR2DS3 /// KIR2DS4 /// KIR3DL3 /// KIR3DL3 /// KIR3DS1 (11738374_at) / Fold change /veh KIR2DL2 /// KIR2DL4 /// KIR2DL5A /// KIR2DL5B /// KIR2DS1 /// KIR2DS2 /// KIR2DS3 /// KIR2DS4 /// KIR3DL3 /// KIR3DL3 /// KIR3DS1 (11738374_at) / RFU C1QL1 (11718748_at) / Fold change /veh C1QL1 (11718748_at) / RFU TMPRSS4 (11747572_a_at) / Fold change /veh TMPRSS4 (11747572_a_at) / RFU HAMP (11756126_x_at) / Fold change /veh HAMP (11756126_x_at) / RFU RNFT2 (11725882_a_at) / Fold change /veh RNFT2 (11725882_a_at) / RFU NR4A2 (11747474_a_at) / Fold change /veh NR4A2 (11747474_a_at) / RFU ABCC12 (11746883_a_at) / Fold change /veh ABCC12 (11746883_a_at) / RFU TMEM136 (11760407_x_at) / Fold change /veh TMEM136 (11760407_x_at) / RFU CLDN22 /// WWC2 (11732394_at) / Fold change /veh CLDN22 /// WWC2 (11732394_at) / RFU HLA-DPB1 (11760878_x_at) / Fold change /veh HLA-DPB1 (11760878_x_at) / RFU SPINT1 (11716480_a_at) / Fold change /veh SPINT1 (11716480_a_at) / RFU GAP43 (11754022_s_at) / Fold change /veh GAP43 (11754022_s_at) / RFU A4GNT (11735810_at) / Fold change /veh A4GNT (11735810_at) / RFU PRB3 (11715151_x_at) / Fold change /veh PRB3 (11715151_x_at) / RFU TUBB4B (11761932_at) / Fold change /veh TUBB4B (11761932_at) / RFU CAPN14 (11732068_a_at) / Fold change /veh CAPN14 (11732068_a_at) / RFU TMCC2 (11721928_a_at) / Fold change /veh TMCC2 (11721928_a_at) / RFU IRGQ (11745062_a_at) / Fold change /veh IRGQ (11745062_a_at) / RFU FAM174B (11720279_a_at) / Fold change /veh FAM174B (11720279_a_at) / RFU TMPRSS4 (11748680_a_at) / Fold change /veh TMPRSS4 (11748680_a_at) / RFU FAM212B (11763350_a_at) / Fold change /veh FAM212B (11763350_a_at) / RFU PLEKHG5 (11743358_a_at) / Fold change /veh PLEKHG5 (11743358_a_at) / RFU ZSCAN30 (11745921_a_at) / Fold change /veh ZSCAN30 (11745921_a_at) / RFU CMKLR1 (11741424_a_at) / Fold change /veh CMKLR1 (11741424_a_at) / RFU LOC101060620 /// MAPK8IP1 (11723275_at) / Fold change /veh LOC101060620 /// MAPK8IP1 (11723275_at) / RFU SPTSSB (11747773_x_at) / Fold change /veh SPTSSB (11747773_x_at) / RFU PRSS12 (11739890_at) / Fold change /veh PRSS12 (11739890_at) / RFU BIN1 (11741810_x_at) / Fold change /veh BIN1 (11741810_x_at) / RFU WNT11 (11732464_a_at) / Fold change /veh WNT11 (11732464_a_at) / RFU C10orf10 (11716521_a_at) / Fold change /veh C10orf10 (11716521_a_at) / RFU C5orf56 (11738089_at) / Fold change /veh C5orf56 (11738089_at) / RFU CYB561 (11721691_x_at) / Fold change /veh CYB561 (11721691_x_at) / RFU ANKRD19P (11752326_a_at) / Fold change /veh ANKRD19P (11752326_a_at) / RFU OR2T12 /// OR2T33 /// OR2T8 (11738714_s_at) / Fold change /veh OR2T12 /// OR2T33 /// OR2T8 (11738714_s_at) / RFU VCAN (11748164_a_at) / Fold change /veh VCAN (11748164_a_at) / RFU JSRP1 (11732532_at) / Fold change /veh JSRP1 (11732532_at) / RFU KRTAP10-11 (11738290_x_at) / Fold change /veh KRTAP10-11 (11738290_x_at) / RFU MYO3A (11730013_a_at) / Fold change /veh MYO3A (11730013_a_at) / RFU EBF3 (11725865_a_at) / Fold change /veh EBF3 (11725865_a_at) / RFU CAMK2N1 (11719241_x_at) / Fold change /veh CAMK2N1 (11719241_x_at) / RFU C5orf56 (11738088_a_at) / Fold change /veh C5orf56 (11738088_a_at) / RFU OLFML3 (11715873_a_at) / Fold change /veh OLFML3 (11715873_a_at) / RFU LOC100653217 /// NTM (11731650_a_at) / Fold change /veh LOC100653217 /// NTM (11731650_a_at) / RFU MAPK11 (11762145_a_at) / Fold change /veh MAPK11 (11762145_a_at) / RFU FIZ1 (11724087_x_at) / Fold change /veh FIZ1 (11724087_x_at) / RFU OASL (11726364_x_at) / Fold change /veh OASL (11726364_x_at) / RFU SOX15 (11748057_x_at) / Fold change /veh SOX15 (11748057_x_at) / RFU CD79A (11719716_a_at) / Fold change /veh CD79A (11719716_a_at) / RFU HIST1H1D (11736915_at) / Fold change /veh HIST1H1D (11736915_at) / RFU CASKIN2 (11723855_a_at) / Fold change /veh CASKIN2 (11723855_a_at) / RFU LOC730098 (11760151_x_at) / Fold change /veh LOC730098 (11760151_x_at) / RFU OR4N2 (11742367_at) / Fold change /veh OR4N2 (11742367_at) / RFU PRRT2 (11749266_a_at) / Fold change /veh PRRT2 (11749266_a_at) / RFU SNX32 (11753110_a_at) / Fold change /veh SNX32 (11753110_a_at) / RFU CDHR5 (11726645_a_at) / Fold change /veh CDHR5 (11726645_a_at) / RFU RCAN1 (11760418_a_at) / Fold change /veh RCAN1 (11760418_a_at) / RFU FAM167A (11723789_a_at) / Fold change /veh FAM167A (11723789_a_at) / RFU FAM26E (11764081_at) / Fold change /veh FAM26E (11764081_at) / RFU ISYNA1 (11749810_s_at) / Fold change /veh ISYNA1 (11749810_s_at) / RFU ACY1 (11761880_at) / Fold change /veh ACY1 (11761880_at) / RFU 11764098_at / Fold change /veh 11764098_at / RFU SAMD14 (11745864_x_at) / Fold change /veh SAMD14 (11745864_x_at) / RFU NPB (11741838_a_at) / Fold change /veh NPB (11741838_a_at) / RFU TMPRSS6 (11731388_a_at) / Fold change /veh TMPRSS6 (11731388_a_at) / RFU KRTAP10-2 (11738614_at) / Fold change /veh KRTAP10-2 (11738614_at) / RFU ARHGAP8 /// PRR5-ARHGAP8 (11727945_x_at) / Fold change /veh ARHGAP8 /// PRR5-ARHGAP8 (11727945_x_at) / RFU KRTAP5-7 /// NADSYN1 (11734609_at) / Fold change /veh KRTAP5-7 /// NADSYN1 (11734609_at) / RFU RASL12 (11751679_a_at) / Fold change /veh RASL12 (11751679_a_at) / RFU CDKN2B (11736163_a_at) / Fold change /veh CDKN2B (11736163_a_at) / RFU PRF1 (11729649_at) / Fold change /veh PRF1 (11729649_at) / RFU, ZNF638 /// ZNF638-IT1 / Fold change vs veh, ZNF638 /// ZNF638-IT1 / RFU, PANK3 / Fold change vs veh, PANK3 / RFU, SH3YL1 / Fold change vs veh, SH3YL1 / RFU, ZEB2 / Fold change vs veh, ZEB2 / RFU, NRIP1 / Fold change vs veh, NRIP1 / RFU, PTTG1IP / Fold change vs veh, PTTG1IP / RFU, CAPN2 / Fold change vs veh, CAPN2 / RFU, MED14 / Fold change vs veh, MED14 / RFU, SNORA58 / Fold change vs veh, SNORA58 / RFU, C1orf63 / Fold change vs veh, C1orf63 / RFU, LRRFIP1 / Fold change vs veh, LRRFIP1 / RFU, NDUFAF7 / Fold change vs veh, NDUFAF7 / RFU, SLC12A2 / Fold change vs veh, SLC12A2 / RFU, IBTK / Fold change vs veh, IBTK / RFU, ESF1 / Fold change vs veh, ESF1 / Fold change vs veh, TMEM50B / RFU, TAOK1 / Fold change vs veh, TAOK1 / RFU, ACBD3 / Fold change vs veh, ACBD3 / RFU, TMA16 / Fold change vs veh, TMA16 / RFU, RWDD3 / Fold change vs veh, RWDD3 / RFU, BCAT1 / Fold change vs veh, BCAT1 / RFU, EDEM3 / Fold change vs veh, EDEM3 / RFU, TMEM33 / Fold change vs veh, TMEM33 / RFU, WDR75 / Fold change vs veh, WDR75 / RFU, AHCTF1 / Fold change vs veh, AHCTF1 / RFU, TFRC / Fold change vs veh, TFRC / RFU, ZDHHC17 / Fold change vs veh, ZDHHC17 / RFU, NOM1 / Fold change vs veh, NOM1 / RFU, ARL8B / Fold change vs veh, ARL8B / RFU, ZBTB11 / Fold change vs veh, ZBTB11 / RFU, TAMM41 / Fold change vs veh, TAMM41 / RFU, KIAA1704 /// LOC100996395 / Fold change vs veh, KIAA1704 /// LOC100996395 / RFU, ING1 / Fold change vs veh, ING1 / RFU, TRMT61B / Fold change vs veh, TRMT61B / RFU, FUBP3 / Fold change vs veh, FUBP3 / RFU, TP53 / Fold change vs veh, TP53 / RFU, TNKS2 / Fold change vs veh, TNKS2 / RFU, ZFP14 / Fold change vs veh, ZFP14 / RFU, ACTR2 / Fold change vs veh, ACTR2 / RFU, PPP3R1 / Fold change vs veh, PPP3R1 / RFU, PIK3R1 / Fold change vs veh, PIK3R1 / RFU, HNRNPA1 / Fold change vs veh, HNRNPA1 / RFU, RNF170 / Fold change vs veh, RNF170 / RFU, ZNF28 / Fold change vs veh, ZNF28 / RFU, RNGTT / Fold change vs veh, RNGTT / RFU, OGT / Fold change vs veh, OGT / RFU, BRD1 / Fold change vs veh, BRD1 / RFU, MARS / Fold change vs veh, MARS / RFU, ZNF655 / Fold change vs veh, ZNF655 / RFU, FAHD1 / Fold change vs veh, FAHD1 / RFU, BDP1 / Fold change vs veh, BDP1 / RFU, LRRCC1 / Fold change vs veh, LRRCC1 / RFU, ARID1A / Fold change vs veh, ARID1A / RFU, ZNF146 / Fold change vs veh, ZNF146 / RFU, ZNF330 / Fold change vs veh, ZNF330 / RFU, GPN3 / Fold change vs veh, GPN3 / RFU, C9orf123 / Fold change vs veh, C9orf123 / RFU, N4BP2L2 / Fold change vs veh, N4BP2L2 / RFU, ARFIP1 / Fold change vs veh, ARFIP1 / RFU, FAM179B / Fold change vs veh, FAM179B / RFU, BCL10 / Fold change vs veh, BCL10 / RFU, UHRF1BP1L / Fold change vs veh, UHRF1BP1L / RFU, BET1 / Fold change vs veh, BET1 / RFU, CNOT2 / Fold change vs veh, CNOT2 / RFU, ZNF268 / Fold change vs veh, ZNF268 / Fold change vs veh, ZNF507 / RFU, DGCR2 / Fold change vs veh, DGCR2 / RFU, WDSUB1 / Fold change vs veh, WDSUB1 / Fold change vs veh, HSP90B1 /// MIR3652 / RFU, ADSS / Fold change vs veh, ADSS / RFU, GK / Fold change vs veh, GK / RFU, ZNF148 / Fold change vs veh, ZNF148 / RFU, TAF9 / Fold change vs veh, TAF9 / RFU, SLC1A5 / Fold change vs veh, SLC1A5 / RFU, SLMO2 / Fold change vs veh, SLMO2 / RFU, ABCC4 / Fold change vs veh, ABCC4 / RFU, LOC101060439 /// RAP1B / Fold change vs veh, LOC101060439 /// RAP1B / RFU, RFX7 / Fold change vs veh, RFX7 / RFU, GTPBP10 / Fold change vs veh, GTPBP10 / RFU, CNEP1R1 / Fold change vs veh, CNEP1R1 / RFU, BIVM-ERCC5 /// ERCC5 / Fold change vs veh, BIVM-ERCC5 /// ERCC5 / RFU, ILF3 / Fold change vs veh, ILF3 / RFU 11762660_at / Fold change /veh 11762660_at / RFU VCAN (11757783_s_at) / Fold change /veh VCAN (11757783_s_at) / RFU DDX43 (11728927_at) / Fold change /veh DDX43 (11728927_at) / RFU KRT8 (11758188_x_at) / Fold change /veh KRT8 (11758188_x_at) / RFU NKD1 (11759106_at) / Fold change /veh NKD1 (11759106_at) / RFU SRD5A1 (11742802_a_at) / Fold change /veh SRD5A1 (11742802_a_at) / RFU TPSAB1 /// TPSB2 (11721975_s_at) / Fold change /veh TPSAB1 /// TPSB2 (11721975_s_at) / RFU GSTM3 (11746129_a_at) / Fold change /veh GSTM3 (11746129_a_at) / RFU IL23R (11737362_x_at) / Fold change /veh IL23R (11737362_x_at) / RFU TMEM51 (11727254_a_at) / Fold change /veh TMEM51 (11727254_a_at) / RFU PIWIL2 (11732686_x_at) / Fold change /veh PIWIL2 (11732686_x_at) / RFU ORM1 (11744905_x_at) / Fold change /veh ORM1 (11744905_x_at) / RFU CCDC152 (11743942_at) / Fold change /veh CCDC152 (11743942_at) / RFU ECM1 (11717891_a_at) / Fold change /veh ECM1 (11717891_a_at) / RFU IL23R (11748794_a_at) / Fold change /veh IL23R (11748794_a_at) / RFU TNFAIP8L3 (11732012_x_at) / Fold change /veh TNFAIP8L3 (11732012_x_at) / RFU MBOAT4 (11741988_at) / Fold change /veh MBOAT4 (11741988_at) / RFU 11764193_at / Fold change /veh 11764193_at / RFU TMEM53 (11763286_at) / Fold change /veh TMEM53 (11763286_at) / RFU MAGEB2 (11727129_at) / Fold change /veh MAGEB2 (11727129_at) / RFU TMEM200A (11744735_a_at) / Fold change /veh TMEM200A (11744735_a_at) / RFU CCDC152 (11751479_a_at) / Fold change /veh CCDC152 (11751479_a_at) / RFU FAM211A (11726209_a_at) / Fold change /veh FAM211A (11726209_a_at) / RFU RGS16 (11746705_a_at) / Fold change /veh RGS16 (11746705_a_at) / RFU VCAN (11755009_s_at) / Fold change /veh VCAN (11755009_s_at) / RFU RHOB (11743442_s_at) / Fold change /veh RHOB (11743442_s_at) / RFU RGS16 (11720943_a_at) / Fold change /veh RGS16 (11720943_a_at) / RFU RGS16 (11720944_at) / Fold change /veh RGS16 (11720944_at) / RFU, VPS4B / Fold change vs veh, VPS4B / RFU, CREB1 / Fold change vs veh, CREB1 / RFU, DNAJC13 / Fold change vs veh, DNAJC13 / RFU, GNAQ / Fold change vs veh, GNAQ / RFU, CDK5R1 / Fold change vs veh, CDK5R1 / RFU, ZRANB3 / Fold change vs veh, ZRANB3 / RFU, CUL4A / Fold change vs veh, CUL4A / RFU, CCNY / Fold change vs veh, CCNY / RFU, UFL1 / Fold change vs veh, UFL1 / RFU, COG3 / Fold change vs veh, COG3 / RFU, DIAPH2 / Fold change vs veh, DIAPH2 / RFU, SKA2 / Fold change vs veh, SKA2 / RFU, AFF3 / Fold change vs veh, AFF3 / RFU, LMF1 / Fold change vs veh, LMF1 / RFU, IPO11 / Fold change vs veh, IPO11 / RFU, DFFB / Fold change vs veh, DFFB / RFU, FOXP1 / Fold change vs veh, FOXP1 / RFU, CARD8 / Fold change vs veh, CARD8 / RFU, STRN3 / Fold change vs veh, STRN3 / RFU, ADK / Fold change vs veh, ADK / RFU, RASSF2 / Fold change vs veh, RASSF2 / RFU, WIPF1 / Fold change vs veh, WIPF1 / RFU, LARP1B / Fold change vs veh, LARP1B / RFU, RASA1 / Fold change vs veh, RASA1 / RFU, RB1 / Fold change vs veh, RB1 / RFU, PPFIA1 / Fold change vs veh, PPFIA1 / RFU, MAT2A / Fold change vs veh, MAT2A / RFU, CCT5 / Fold change vs veh, CCT5 / RFU, WDR92 / Fold change vs veh, WDR92 / RFU, CUX1 / Fold change vs veh, CUX1 / RFU, TTC7A / Fold change vs veh, TTC7A / RFU, TMEM135 / Fold change vs veh, TMEM135 / RFU, DEPTOR / Fold change vs veh, DEPTOR / RFU, CPM / Fold change vs veh, CPM / RFU, DNAJB6 / Fold change vs veh, DNAJB6 / RFU, CACNA2D3 / Fold change vs veh, CACNA2D3 / RFU, DTX4 / Fold change vs veh, DTX4 / RFU, TFCP2 / Fold change vs veh, TFCP2 / RFU, GMCL1 /// GMCL1P1 / Fold change vs veh, GMCL1 /// GMCL1P1 / RFU, AEBP2 / Fold change vs veh, AEBP2 / RFU, SNHG1 /// SNORD22 /// SNORD25 /// SNORD26 /// SNORD27 /// SNORD28 /// SNORD29 /// SNORD31 / Fold change vs veh, SNHG1 /// SNORD22 /// SNORD25 /// SNORD26 /// SNORD27 /// SNORD28 /// SNORD29 /// SNORD31 / Fold change (Aza/veh), C12orf56 (ProbeSet 11735607_a_at) / Fold change (ACY-1035/veh), C12orf56 (ProbeSet 11735607_a_at) / Fold change (Aza/veh), FGFR1OP (ProbeSet 11751329_s_at) / Fold change (ACY-1035/veh), FGFR1OP (ProbeSet 11751329_s_at) / Fold change (Aza/veh), VPS36 (ProbeSet 11739960_a_at) / Fold change (ACY-1035/veh), VPS36 (ProbeSet 11739960_a_at) / RFU SYPL1 (11715823_x_at) / Fold change /veh SYPL1 (11715823_x_at) / RFU IGFBP7 (11715501_s_at) / Fold change /veh IGFBP7 (11715501_s_at) / RFU REEP3 (11722064_at) / Fold change /veh REEP3 (11722064_at) / RFU IGLL1 (11728026_x_at) / Fold change /veh IGLL1 (11728026_x_at): dose or concentration left out as unconfirmed
Conditions: MV-4-11 cells, 48 hours

SMILES: Nc1ncn([C@@H]2O[C@H](CO)[C@@H](O)[C@H]2O)c(=O)n1 [azacitidine]
- Fold change /veh C1QL1 (11718748_at): 0.93
